Legend:
MMP-2 = assay: Semi-quantitative RT-PCR in ipsilateral trigeminal ganglion of mice with chronic dry eye; format: in vivo; conditions: Example 3, 0.5% eye drop, FIG. 7
Experimental: (§1) The experiment was divided into 3 groups. 20 mice with chronic dry eye in Example 2 were divided into a 5-methylterahydrofolic acid group (group A, n=10), and an arginine group (group B, n=10). 4 normal mice were taken as the control group. Each eye of the mice in group A was dripped with 5 μL of 5-methylterahydrofolic acid eye drop every day, each eye of the mice in group B was dripped with 5 μL of 0.5% arginine eye drop every day, and each eye of the mice in group C was dripped with 5 μL of a phosphate buffer every day. Tears were collected on the 3rd, 5th, 7th and 10th day after treatment, and the secretion of tears was detected. On the 10th day after treatment, the cornea of the mice in each group were stained with fluorescein.
(§2) The ipsilateral trigeminal ganglion and trigeminal trunk of the eye of the mice were dissected quickly on ice, immediately frozen with liquid nitrogen, and stored at −80° C. RNA was extracted from ipsilateral trigeminal ganglion and trigeminal trunk by using NucleoSpin RNA purification II kit (NucleoSpin RNAS, Germany), and PCR amplification was carried out with mouse-specific cDNAs for matrix metalloproteinases MMP-9, MMP-2, and TNF-α. For each primer, the reaction was stopped after 24, 28, 32, 36, or 40 cycles, so as to ensure that the PCR products were within the linear range of the amplification curve, and semi-quantitative RT-PCR for the expression of related genes was realized.

TNF-α = assay: as above; format: in vivo; conditions: Example 3, 0.5% eye drop, FIG. 7
Experimental: as §1, §2

MMP-9 = assay: as above; format: in vivo; conditions: Example 3, 0.5% eye drop, FIG. 7
Experimental: as §1, §2

IL-17 [1] = assay: IL-17 content in tears of contact lens wearers (ELISA); format: in vivo, human; conditions: symptomatic wearers, oral 5 mg/tablet daily, tears collected after 6 hrs of lens wear, FIG. 1
Experimental: (§3) The symptomatic contact lens wearers were divided into 2 groups, that is, group A (n=4) and group B (n=4). The asymptomatic contact lens wearers were assigned to group C The participants in each group didn't wear contact lenses for 24 hours, and then the tears were collected. Dietary supplements containing 5 mg calcium salt of 6S-5-methylterahydrofolic acid/tablet were orally taken by the participants in group A every day. After 3 days, the participants in each group began to wear contact lenses, and the tears were collected after 6 hrs. The contents of IL-2, IL-6, IL-17, and TNF-α were detected (ELISA method). The participants in each group were followed up to determine the degree of discomfort of wearing contact lenses.

[2] = tested on: mice with chronic dry eye; assay: Corneal fluorescein staining in mice with chronic dry eye; format: in vivo; conditions: 10th day after treatment
Description: It can be seen that a suitable animal model of dry eye is very important, and it is impossible to show the true state of dry eye or contact lens discomfort only by destroying the lacrimal gland or modeling with hypertonic saline. The mouse model of dry eye constructed under specific environmental conditions is closest to the real situation. 120 female BALB/c mice aged 8-12 weeks were placed in an isolated and sealed cage with an opening on the top. Air dried through anhydrous CaSO4 was pumped into the cage by an air pump, where the air humidity RH=19.5%±5%, the flow rate was 15 L/min, and the temperature was 21-23° C. The mice in the dry and windy environment were taken out on the 5th, 15th and 30th day respectively. The production of tears was measured by phenol red thread test, and compared with that of the mice raised in standard cages in normal environment. Meanwhile, the cornea of the mice were stained with fluorescein, and the punctate staining was recorded in the cornea.
as §1
The experiment was divided into 4 groups. […] Tears were collected on the 3rd, 5th, 7th and 10th day after treatment, and the secretion of tears was detected. […]

IL-17 [3] = assay: Inflammatory factors on ocular surface of mice with chronic dry eye (ELISA); format: in vivo; conditions: Example 3, 0.5% eye drop, cornea, conjunctiva and draining lymph node, FIG. 6
Experimental: as §1
After treatment, the animals were euthanized, and the eye tissues such as cornea, lacrimal gland and meibomian gland were taken out and washed in PBS. The cornea, conjunctiva and draining lymph node were collected and stored in cold sterile PBS at −80° C. The samples were homogenized and centrifuged on ice. The levels of […], IL-17 and IL-6 in the supernatant were determined by ELISA kit (Raybiotech).

[4] = tested on: symptomatic contact lens wearers; assay: Follow-up of degree of discomfort of wearing contact lenses; format: in vivo, human; conditions: group A (n=4), oral 5 mg calcium salt of 6S-5-methylterahydrofolic acid/tablet every day, contact lenses worn after 3 days
Experimental: A total of 10 adults suffering from contact lens discomfort were included in the study. Among them, 8 felt uncomfortable when wearing contact lenses, and 2 were asymptomatic contact lens wearers. The contact lenses worn by the participants were all silicone hydrogel-based contact lenses. All the participants were in good health. The symptoms and severity of eye discomfort were evaluated by the ocular surface disease index (OSDI), and whether there were symptoms such as inflammation in the eyes was checked by an optometrist.
as §3

Stability in water = format: physicochemical
[5] = Example 3, 0.5% eye drop, 5 μL per eye every day, FIG. 5

Row | SMILES | MMP-2 gene expression in trigeminal nerve (MMP-2) | TNF-α gene expression in trigeminal nerve (TNF-α) | MMP-9 gene expression in trigeminal nerve (MMP-9) | level of IL-17 in tears (IL-17 [1]) | corneal injury (fluorescein staining) [2, 5] | IL-17 inflammatory factor on ocular surface (IL-17 [3]) | participants saying that the contact lens discomfort almost disappears [4] [participants] | participants thinking that the effect is not significant [4] [case] | stability in water (Stability in water) | corneal injury (fluorescein staining) ([2]; Example 4, eye drops, FIG. 9)
1 | CN1c2c(nc(N)[nH]c2=O)NCC1CNc1ccc(C(=O)N[C@@H](CCC(=O)O)C(=O)O)cc1 (some centres unmarked) [5-methylterahydrofolic acid] | can significantly inhibit the MMP-2 gene expression | a certain inhibitory effect on TNF-α | not on MMP-9 significantly | can reduce the level of IL-17 in tears | can improve the corneal injury with a significant difference from the baseline state | can significantly reduce IL-17 inflammatory factor | 3 | 1 | – | –
2 | CN1c2c(nc(N)[nH]c2=O)NC[C@@H]1CNc1ccc(C(=O)N[C@@H](CCC(=O)O)C(=O)O)cc1.N=C(N)NCCC[C@H](N)C(=O)O [arginine 5-methylterahydrofolate, arginine 6S-5-methylterahydrofolate] | – | – | – | – | – | – | – | – | very poor | can improve the corneal injury, with a significant difference from the baseline state
3 | N=C(N)NCCC[C@H](N)C(=O)O [arginine, reference compound] | – | – | – | – | can not significantly improve the ocular surface damage | – | – | – | – | –

— patent US20240316053A1, “USE OF FOLATE DERIVATIVE IN PREPARATION OF DRUG FOR TREATING CONTACT LENS DISCOMFORT AND DRY EYE” (LIANYUNGANG JINKANG HEXIN PHARMACEUTICAL CO., LTD., priority 2021, published 2024)
